In US20150133492A1, “N-desmethyldauricine, A Novel Autophagic Enhancer for Treatment of Cancers and Neurodegenerative Conditions Thereof” (Macau University of Science and Technology, priority 2013, published 2015):

Assays:
HeLa cancer cells = assay: Transmission electron microscopy of autophagosomes/autolysosomes; assay type: cell-based, human; conditions: treated HeLa cancer cells
From the text: N-desmethyldauricine treated HeLa cells were fixed overnight with 2.5% glutaraldehyde followed by a buffer wash. Samples were post-fixed in 1% OsO4 and embedded in Araldite 502. Ultrathin sections were double stained with uranyl acetate and lead citrate, and analyzed by Philips CM 100 transmission electron microscope at a voltage of 80 kV.

Atg7+/+ cells = assay: Annexin V flow cytometry cell death, Atg7 wild-type MEFs; assay type: cell-based, mouse; conditions: 10 μM, 24 h
Method: (§1) Cell viability was measured using an annexin V staining kit (BD Biosciences, San Jose, Calif., USA). Briefly, Atg7 wild-type (Atg7^+/+ or Atg7-wt) and Atg7 deficient (Atg7^−/− or Atg7-ko) mouse embryonic fibroblasts (MEFs) were treated with the 10 μM N-desmethyldauricine for 24 h. Cells were then harvested and analysed by multiparametric flow cytometry using FITC-Annexin V and Propidium iodide staining (BD Biosciences, San Jose, Calif., USA) according to the manufacturer's instructions. Flow cytometry was then carried out using a FACSCalibur flow cytometer (BD Biosciences, San Jose, Calif., USA). Data acquisition and analysis was performed with CellQuest (BD Biosciences, San Jose, Calif., USA). Data were obtained from three independent experiments.

[1] = tested on: autophagy deficient cells (Atg7−/−); assay: Annexin V flow cytometry cell death, Atg7 deficient MEFs; assay type: cell-based, mouse; conditions: 10 μM, 24 h
Method: as §1

HeLa cells [2] = assay: RT2 Profiler autophagy PCR array; assay type: cell-based, human
From the text: For PCR array analysis, N-desmethyldauricine treated HeLa cells were used to obtain the total RNA by Qiagen RNeasy® Mini Kit (Qiagen). The autophagy pathway specific RT-PCR array was used to evaluate the potential alterations of related genes after N-desmethyldauricine treatments in HeLa cells. The autophagy array comprised 87 genes selected based on their involvement in regulating autophagy induction. There were 5 housekeeping genes served as positive controls. Total RNA was reverse transcripted using the RT2 First Strand Kit. Real-time PCR reactions were carried out on ABI 7500 (Applied Biosystems) using the RT2 SYBR® Green qPCR Mastermix (Qiagen) according to manufacturer's instructions. Data analysis was performed using the Qiagen's integrated web-based software package for the PCR Array System, which automatically performs all ΔΔCt based fold-change calculations from raw threshold cycle data.

[3] = tested on: wild type Atg7 cells (Atg7+/+) mouse embryonic fibroblasts; assay: GFP-LC3 puncta in Atg7 wild-type MEFs; assay type: cell-based
Method: GFP-LC3 puncta formation was quantified as previously described^15. In brief, both Atg7 wild-type and deficient mouse embryonic fibroblasts (MEFs) grown on coverslips in a 6-well plate were treated with indicated concentrations of N-desmethyldauricine. Both Atg7 wild-type and deficient mouse embryonic fibroblasts were then fixed in 4% paraformaldehyde for 20 minutes at room temperature and then rinsed with PBS. Slides were mounted with FluorSave™ mounting media (Calbiochem, San Diego, Calif.) and examined by fluorescence microscopy. The number of GFP-positive cells with GFP-LC3 puncta formation was examined under the Nikon ECLIPSE 80i microscope. Representative images were captured with CCD digital camera Spot RT3™ (Diagnostic Instruments, Inc., Melville, N.Y.). To quantify for autophagy, the percentage of cells with punctate GFP-LC3 fluorescence was calculated by counting the number of the cells with punctate GFP-LC3 fluorescence in GFP-positive cells. A minimum of 150 cells from 3 randomly selected fields was scored.

[4] = tested on: EGFP-tagged mutant huntingtin (Q23, Q55, Q74); assay: Removal of mutant huntingtin by immunoblotting; assay type: cell-based; conditions: PC 12, 7.5 μM, 24 hours
Method: PC 12 cells were transfected transiently with EGFP-HDQ23/55/74 (Q23, Q55, Q74) plasmids for 24 hours using Lipofectamine Plus LTX reagent (Invitrogen) according to the manufacturer's protocol. The transfected cells were then treated with N-desmethyldauricine for 24 hours. The removal of mutant huntingtin, (Q23, Q55, Q74) were then quantitated by immunoblotting with antibody against EGFP.

[5] = tested on: AMPK-mTOR signaling pathway; assay: Western blot of mTOR signaling marker proteins; assay type: cell-based, human; conditions: HeLa
Method: HeLa cells treated with indicated time and concentrations of N-desmethyldauricine were harvested and lysed in RIPA buffer (Cell Signaling). The cell lysates were then resolved by SDS-PAGE. After electrophoresis, the proteins from SDS-PAGE were transferred to nitrocellulose membrane which was then blocked with 5% non-fat dried milk for 60 minutes. The membrane was then incubated with P-p70S6K, p70S6K, P-AMPK, AMPK and actin primary antibodies (1:1000) in TBST overnight at 4° C. respectively. After that, the membrane was further incubated with HRP-conjugated secondary antibodies for 60 minutes. Finally, protein bands were visualized by using the ECL Western Blotting Detection Reagents (Invitrogen).

LC3 = assay: Western blot of autophagic marker LC3 conversion and autophagic flux; assay type: cell-based, human; conditions: HeLa
Method: (§2) After N-desmethyldauricine treatments, HeLa cancer cells were harvested and lysed in RIPA buffer (Cell Signaling Technologies Inc. (Beverly, Mass.). The cell lysates were then resolved by SDS-PAGE. After electrophoresis, the proteins from SDS-PAGE were transferred to nitrocellulose membrane which was then blocked with 5% non-fat dried milk for 60 minutes. The membrane was then incubated with LC3 primary antibodies (1:1000) in TBST overnight at 4° C. After that, the membrane was further incubated with HRP-conjugated secondary antibodies for 60 minutes. Finally, protein bands were visualized by using the ECL Western Blotting Detection Reagents (Invitrogen, Paisley, Scotland, UK).
as §2, with “treatments in the presence or absence of lysosomal inhibitor 10·M of E64d/Pepstatin A,” for “treatments,”, “Inc., Beverly,” for “Inc. (Beverly,”, “Finally, protein bands were visualized by using the ECL Western Blotting Detection Reagents (Invitrogen, Paisley, Scotland, UK).” left out

HeLa cells [6] = assay: Calcium detection by flow cytometry (Fluo-3); assay type: cell-based, human; conditions: 5 μM/10 μM, 1 h, 2 h, 4 h
Method: Changes in intracellular free calcium were measured by a fluorescent dye, Fluo-3, as described previously^18. Briefly, HeLa cells were washed twice with MEM medium after N-desmethyldauricine (LP-4) treatment (5 μM/10 μM) for various times (1 h, 2 h, 4 h). Then cell suspensions were incubated with 5 μM Fluo-3 at 37° C. for 30 min. Then the cells were washed twice with HBSS. After re-suspended cell samples were subjected to FACS analysis, at least 10,000 events were analyzed.

COc1cc2c(cc1OC)[C@@H](Cc1ccc(Oc3cc(C[C@H]4NCCc5cc(OC)c(OC)cc54)ccc3O)cc1)N(C)CC2 [N-desmethyldauricine]
autophagosomes/autolysosomes by electron microscopy (HeLa cancer cells): found
cell death (Atg7+/+ cells): markedly induce cell death
cell death [1]: not
gene regulation during autophagy induction (HeLa cells [2]): regulation of a panel of genes, i.e. Igf1, Fam176a, Ulk1, PERK, Cxcr4 and p62
GFP-LC3 puncta formation [3]: induce GFP-LC3 puncta formation
clearance of overexpressed EGFP-tagged mutant huntingtin [4]: enhance the clearance
p70S6K phosphorylation [5]: concomitant reduction
phosphorylation of AMPK ([5]; time dependent): activate
autophagic marker LC3-II conversion (LC3; western blot): induced
LC3-II conversion in the presence of lysosomal inhibitor (LC3; with E64d/Pepstatin A): further enhance
cytosolic calcium level (HeLa cells [6]): increase
